Laboratory results taken from PMC11384906, “PAR1-mediated Non-periodical Synchronized Calcium Oscillations in Human Mesangial Cells” (Function, 2024).

What was measured:
[1] = test system: freshly isolated Wistar rat glomeruli; settings: Ang II 60 µM, acute application; text b29 words it 'up to'
Excerpt: Sixteen-week Wistar Kyoto male rats were obtained from Charles River and were kept in a light-controlled environment with a 12:12-h light/dark cycle and given free access to water (filtered, RO water) and food (5V75-PicoLab Verified 75 IF, LabDiet, USA).
Briefly, male Wistar rat kidneys were harvested, decapsulated, and used to isolate glomeruli by differential sieving. Freshly isolated glomeruli were collected and stored on ice in a 15-mL tube with a 5% BSA (Sigma-Aldrich, # A8327)/RPMI-1640 solution with non-permeable 150 kDa TRITC-dextran (1 mg/mL, TdB Labs, #TD150, Uppsala, Sweden). […] Glomeruli were attached to poly-L-lysine covered glass-bottom dishes and covered with the extracellular solution containing 150 kDa TRITC dextran. Z-stacks with 18 consecutive focal planes (3 µm each) were collected every 1 min, allowing glomeruli volume reconstruction. Output files were imported into Imaris Software (Oxford Bitplane, version 9.6.1), reconstructed in 3D, and processed to calculate glomerular volume.

[2] = test system: mesangial cells; settings: cited from earlier work
[3] = test system: platelets; settings: cited from earlier work
[4] = test system: endothelial cells; settings: cited from earlier work
[5] = test system: vascular smooth muscle cells; settings: cited from earlier work
[6] = test system: monocytes; settings: cited from earlier work
[7] = test system: neuronal cells; settings: cited from earlier work
[8] = test system: MCs; settings: cited from earlier work

| Substance | Glomerular volume reduction [1] | Concentration at which significant Ca2+ response was detected [2] | Concentration at which significant Ca2+ response was detected (molar equivalent) ([2]; equivalent of 0.1 U/mL) | Thrombin concentration sufficient to induce Ca2+ mobilization [3] | Thrombin concentration required to activate endothelial cells [4] | Thrombin concentration required to activate vascular smooth muscle cells [5] | Thrombin concentration required to activate intracellular Ca2+ signaling [6] | Thrombin concentration required to activate intracellular Ca2+ signaling [7] | Effect on MC proliferation and synthesis [8] |
| --- | --- | --- | --- | --- | --- | --- | --- | --- | --- |
| Angiotensin II [Ang II] | 20.7% | – | – | – | – | – | – | – | – |
| thrombin | – | around 0.1 U/mL | approximately 1 nM | 0.1 to 1 U/mL | 0.5 to 2 U/mL | 0.5 to 2 U/mL | 1-5 U/mL | 1-5 U/mL | stimulate MC proliferation and synthesis of prostaglandins, nitric oxide, endothelin-1, extracellular matrix components, and chemokines |
